In patent US20250205344A1, “2,4-DIOXOTETRAHYDROPYRIMIDINYL DERATIVES AS DEGRONS IN PROTACS” (GLAXOSMITHKLINE INTELLECTUAL PROPERTY DEVELOPMENT LIMITED, priority 2022, published 2025) one finds Dmax data, which are given here for 20 molecules.

Structures can show the parent of a compound that is named as a salt. Some results are limits rather than exact numbers.

In the experiment the target is T1, Androgen Receptor (Homo sapiens, UniProt P10275, T878A).
T1 construct: the AR gene was modified, using CRISPR/Cas9 editing, so the expressed AR protein included an 11 amino acid HiBiT tag; endogenous in cells; host or cells: clonal LnCaP-derived line, AR gene edited by CRISPR/Cas9
T1 sequence (P10275 whole entry T878A): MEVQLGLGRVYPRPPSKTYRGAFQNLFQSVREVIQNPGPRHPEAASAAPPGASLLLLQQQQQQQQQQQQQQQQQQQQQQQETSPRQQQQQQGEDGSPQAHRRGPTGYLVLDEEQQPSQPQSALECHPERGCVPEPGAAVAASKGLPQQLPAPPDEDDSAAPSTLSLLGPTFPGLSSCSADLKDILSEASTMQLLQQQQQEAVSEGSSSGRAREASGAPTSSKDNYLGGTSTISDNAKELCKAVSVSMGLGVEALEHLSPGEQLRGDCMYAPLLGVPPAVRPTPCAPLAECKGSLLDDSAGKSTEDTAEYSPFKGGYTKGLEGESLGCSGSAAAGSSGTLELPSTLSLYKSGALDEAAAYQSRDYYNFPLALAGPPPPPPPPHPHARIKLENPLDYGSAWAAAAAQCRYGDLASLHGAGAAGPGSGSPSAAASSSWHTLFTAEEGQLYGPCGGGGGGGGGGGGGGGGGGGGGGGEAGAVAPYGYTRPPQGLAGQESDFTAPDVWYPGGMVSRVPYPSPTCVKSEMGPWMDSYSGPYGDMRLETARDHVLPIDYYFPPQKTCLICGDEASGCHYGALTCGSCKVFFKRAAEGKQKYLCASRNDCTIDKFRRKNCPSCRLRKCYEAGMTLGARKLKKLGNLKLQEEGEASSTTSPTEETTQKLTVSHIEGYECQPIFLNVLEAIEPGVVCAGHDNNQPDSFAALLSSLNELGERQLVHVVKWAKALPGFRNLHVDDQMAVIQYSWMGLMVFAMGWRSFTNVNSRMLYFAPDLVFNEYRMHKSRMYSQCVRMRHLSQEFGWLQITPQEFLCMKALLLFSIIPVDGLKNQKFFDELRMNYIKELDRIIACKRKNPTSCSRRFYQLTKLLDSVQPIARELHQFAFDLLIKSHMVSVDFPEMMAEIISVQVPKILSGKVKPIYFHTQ
T1 sequence (Q96SW2 whole entry partner): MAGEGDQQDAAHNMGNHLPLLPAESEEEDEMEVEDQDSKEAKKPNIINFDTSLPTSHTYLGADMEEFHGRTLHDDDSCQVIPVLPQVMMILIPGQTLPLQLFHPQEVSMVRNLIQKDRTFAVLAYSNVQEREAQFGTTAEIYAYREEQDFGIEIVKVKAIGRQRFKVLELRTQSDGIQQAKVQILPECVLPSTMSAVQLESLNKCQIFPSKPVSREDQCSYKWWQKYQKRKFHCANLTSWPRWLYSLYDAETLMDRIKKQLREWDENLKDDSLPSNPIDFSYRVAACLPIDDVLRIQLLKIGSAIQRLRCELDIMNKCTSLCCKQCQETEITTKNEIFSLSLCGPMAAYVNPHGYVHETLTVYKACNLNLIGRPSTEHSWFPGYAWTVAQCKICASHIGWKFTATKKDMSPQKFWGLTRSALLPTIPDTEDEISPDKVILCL
T1 sequence (Q16531 whole entry partner): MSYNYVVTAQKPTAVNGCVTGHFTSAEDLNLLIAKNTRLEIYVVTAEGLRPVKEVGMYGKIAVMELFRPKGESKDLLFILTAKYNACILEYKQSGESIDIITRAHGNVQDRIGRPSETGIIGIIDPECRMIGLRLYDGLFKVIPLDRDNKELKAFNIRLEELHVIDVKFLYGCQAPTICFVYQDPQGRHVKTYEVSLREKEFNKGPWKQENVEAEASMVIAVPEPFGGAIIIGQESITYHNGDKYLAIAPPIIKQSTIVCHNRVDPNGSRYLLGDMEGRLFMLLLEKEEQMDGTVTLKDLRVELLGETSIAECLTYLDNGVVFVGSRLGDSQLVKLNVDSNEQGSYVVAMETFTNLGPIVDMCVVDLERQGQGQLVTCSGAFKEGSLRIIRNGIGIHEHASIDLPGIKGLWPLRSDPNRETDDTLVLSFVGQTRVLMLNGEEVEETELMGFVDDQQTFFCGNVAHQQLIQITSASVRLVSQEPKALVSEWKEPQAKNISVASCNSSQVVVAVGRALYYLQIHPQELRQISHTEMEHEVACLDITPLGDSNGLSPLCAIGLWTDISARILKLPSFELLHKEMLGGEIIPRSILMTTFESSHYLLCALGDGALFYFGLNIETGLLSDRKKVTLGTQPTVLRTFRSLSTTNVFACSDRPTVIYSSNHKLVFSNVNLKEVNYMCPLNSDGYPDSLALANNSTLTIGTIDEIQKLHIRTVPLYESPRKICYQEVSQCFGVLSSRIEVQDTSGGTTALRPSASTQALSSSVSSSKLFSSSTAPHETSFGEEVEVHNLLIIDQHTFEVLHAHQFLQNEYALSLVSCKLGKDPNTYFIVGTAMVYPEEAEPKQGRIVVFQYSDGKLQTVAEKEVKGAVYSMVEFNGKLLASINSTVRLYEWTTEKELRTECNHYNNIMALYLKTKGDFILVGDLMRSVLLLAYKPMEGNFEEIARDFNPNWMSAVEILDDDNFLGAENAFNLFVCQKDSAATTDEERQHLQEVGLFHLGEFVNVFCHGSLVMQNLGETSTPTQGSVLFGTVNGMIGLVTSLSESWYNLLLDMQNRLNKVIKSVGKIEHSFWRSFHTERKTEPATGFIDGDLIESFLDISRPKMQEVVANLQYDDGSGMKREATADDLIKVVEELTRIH
The experiment in a line: Androgen Receptor Degradation Assay (Nano-Glo HiBiT). The experiment is classed as cell-based. To be noted: LNCaP, 18 h, HiBiT-tagged AR in human LnCaP cells, read-out: mean asymptote max. The essentials:
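LnCaP cells with CRISPR-knocked-in N-terminal HiBiT-tagged AR (10,000/well) treated 18 h at 37 °C with PROTACs over 11 threefold concentrations; lytic HiBiT luminescence normalised to DMSO (0%) and cell-free (100%) controls. Relative DC50 = 4-parameter fit inflection; absolute DC50 = 50% degradation interpolation; Dmax = maximum observed degradation.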
Background: The HiBiT peptide binds its large partner to form an active luciferase.
For `N#Cc1ccc(O[C@H]2CC[C@H](NC(=O)c3cnc(N4CCC(CN5CCC(n6ccc7c(N8CCC(=O)NC8=O)ncnc76)CC5)CC4)cn3)CC2)cc1Cl` [EAR196, N-((1r,4r)-4-(3-Chloro-4-cyanophenoxy)cyclohexyl)-5-(4-((4-(4-(2,4-dioxotetrahydropyrimidin-1(2H)-yl)-7H-pyrrolo[2,3-d]pyrimidin-7-yl)piperidin-1-yl)methyl)piperidin-1-yl)pyrazine-2-carboxamide hydrochloride], the Dmax is no less than 50%. The same measure for `N#Cc1ccc(O[C@H]2CC[C@H](NC(=O)c3cnc(N4CCC(CN5CCC(n6ncc7c(N8CCC(=O)NC8=O)cc(F)cc76)CC5)CC4)nc3)CC2)cc1Cl` [AR205, N-((1r,4r)-4-(3-Chloro-4-cyanophenoxy)cyclohexyl)-2-(4-((4-(4-(2,4-dioxotetrahydropyrimidin-1(2H)-yl)-6-fluoro-1H-indazol-1-yl)piperidin-1-yl)methyl)piperidin-1-yl)pyrimidine-5-carboxamide]: no less than 50%; for `N#Cc1ccc(O[C@H]2CC[C@H](NC(=O)c3ccc(N4C[C@]5(CN6CCC(n7ncc8c(N9CCC(=O)NC9=O)cccc87)CC6)C[C@]5(C(F)(F)F)C4)nn3)CC2)cc1Cl` [EAR244, N-((1r,4R)-4-(3-chloro-4-cyanophenoxy)cyclohexyl)-6-((1R,5R)-1-((4-(4-(2,4-dioxotetrahydropyrimidin-1(2H)-yl)-1H-indazol-1-yl)piperidin-1-yl)methyl)-5-(trifluoromethyl)-3-azabicyclo[3.1.0]hexan-3-yl)pyridazine-3-carboxamide]: no less than 50%; for `N#Cc1ccc(O[C@H]2CC[C@H](NC(=O)c3ccc(N4CCC(CN5CCC(n6ccc7c(N8CCC(=O)NC8=O)cccc76)CC5)CC4)cn3)CC2)cc1Cl` [EAR186, N-((1r,4r)-4-(3-Chloro-4-cyanophenoxy)cyclohexyl)-5-(4-((4-(4-(2,4-dioxotetrahydropyrimidin-1(2H)-yl)-1H-indol-1-yl)piperidin-1-yl)methyl)piperidin-1-yl)picolinamide]: no less than 50%. Consider `N#Cc1ccc(O[C@H]2CC[C@H](NC(=O)c3cnc(N4CCC(CN5CCC(n6ccc7c(N8CCC(=O)NC8=O)nccc76)CC5)CC4)cn3)CC2)cc1Cl` [EAR182, N-((1r,4r)-4-(3-Chloro-4-cyanophenoxy)cyclohexyl)-5-(4-((4-(4-(2,4-dioxotetrahydropyrimidin-1(2H)-yl)-1H-pyrrolo[3,2-c]pyridin-1-yl)piperidin-1-yl)methyl)piperidin-1-yl)pyrazine-2-carboxamide], for which the Dmax is no less than 50%.

Take `N#Cc1ccc(O[C@H]2CC[C@H](NC(=O)c3ccc(N4CC5(CCC(CN6CCC(n7ncc8c(N9CCC(=O)NC9=O)cccc87)CC6)CC5)C4)nn3)CC2)cc1Cl` [EAR225, N-((1r,4r)-4-(3-chloro-4-cyanophenoxy)cyclohexyl)-6-(7-((4-(4-(2,4-dioxotetrahydropyrimidin-1(2H)-yl)-1H-indazol-1-yl)piperidin-1-yl)methyl)-2-azaspiro[3.5]nonan-2-yl)pyridazine-3-carboxamide]: the Dmax is no less than 50%. For `N#Cc1ccc(O[C@H]2CC[C@H](NC(=O)c3ccc(N4CCC(CN5CCC(n6ncc7c(N8CCC(=O)NC8=O)ccnc76)CC5)CC4)nn3)CC2)cc1C(F)(F)F` [EAR210, N-((1r,4r)-4-(4-Cyano-3-(trifluoromethyl)phenoxy)cyclohexyl)-6-(4-((4-(4-(2,4-dioxotetrahydropyrimidin-1(2H)-yl)-1H-pyrazolo[3,4-b]pyridin-1-yl)piperidin-1-yl)methyl)piperidin-1-yl)pyridazine-3-carboxamide] the value was no less than 50%; for `N#Cc1ccc(O[C@H]2CC[C@H](NC(=O)c3ccc(N4CCC(CN5CCC(c6ncc7c(N8CCC(=O)NC8=O)cccn67)CC5)CC4)nn3)CC2)cc1Cl` [EAR177, N-((1r,4r)-4-(3-Chloro-4-cyanophenoxy)cyclohexyl)-6-(4-((4-(8-(2,4-dioxotetrahydropyrimidin-1(2H)-yl)imidazo[1,5-a]pyridin-3-yl)piperidin-1-yl)methyl)piperidin-1-yl)pyridazine-3-carboxamide], no less than 50%; for `N#Cc1ccc(O[C@H]2CC[C@H](NC(=O)c3cnc(N4CCC(CN5CCC(n6ncc7c(N8CCC(=O)NC8=O)cncc76)CC5)CC4)nc3)CC2)cc1Cl` [AR216, N-((1r,4r)-4-(3-chloro-4-cyanophenoxy)cyclohexyl)-2-(4-((4-(4-(2,4-dioxotetrahydropyrimidin-1(2H)-yl)-1H-pyrazolo[3,4-c]pyridin-1-yl)piperidin-1-yl)methyl)piperidin-1-yl)pyrimidine-5-carboxamide], no less than 50%.

With `N#Cc1ccc(O[C@H]2CC[C@H](NC(=O)c3ccc(N4CCC(CN5CCC(n6ncc7c(N8CCC(=O)NC8=O)c(F)ccc76)CC5)CC4)nn3)CC2)cc1Cl` [EAR140, N-((1r,4r)-4-(3-Chloro-4-cyanophenoxy)cyclohexyl)-6-(4-((4-(4-(2,4-dioxotetrahydropyrimidin-1(2H)-yl)-5-fluoro-1H-indazol-1-yl)piperidin-1-yl)methyl)piperidin-1-yl)pyridazine-3-carboxamide, hydrochloride], the Dmax is no less than 50%. In the case of `C[C@@H]1CN(c2ccc(C#N)c(Cl)c2)[C@@H](C)CN1C(=O)c1ccc(OCCN2CCC(n3ncc4c(N5CCC(=O)NC5=O)cncc43)CC2)nc1` [EAR174, 2-Chloro-4-((2S,5R)-4-(6-(2-(4-(4-(2,4-dioxotetrahydropyrimidin-1(2H)-yl)-1H-pyrazolo[3,4-c]pyridin-1-yl)piperidin-1-yl)ethoxy)nicotinoyl)-2,5-dimethylpiperazin-1-yl)benzonitrile], the Dmax was no less than 50%. For `N#Cc1ccc(O[C@H]2CC[C@H](NC(=O)c3ccc(N4CCC(CN5CCC(n6ccc7c(N8CCC(=O)NC8=O)cccc76)CC5)CC4)nn3)CC2)cc1Cl` [EAR23, N-((1r,4r)-4-(3-Chloro-4-cyanophenoxy)cyclohexyl)-6-(4-((4-(4-(2,4-dioxotetrahydropyrimidin-1(2H)-yl)-1H-indol-1-yl)piperidin-1-yl)methyl)piperidin-1-yl)pyridazine-3-carboxamide] the value was no less than 50%; for `N#Cc1ccc(O[C@H]2CC[C@H](NC(=O)c3ccc(N4CCC(CN5CCC(CCn6ccc7c(N8CCC(=O)NC8=O)cccc76)CC5)CC4)nn3)CC2)cc1Cl` [EAR179, N-((1r,4r)-4-(3-chloro-4-cyanophenoxy)cyclohexyl)-6-(4-((4-(2-(4-(2,4-dioxotetrahydropyrimidin-1(2H)-yl)-1H-indol-1-yl)ethyl)piperidin-1-yl)methyl)piperidin-1-yl)pyridazine-3-carboxamide hydrochloride], no less than 50%. On to `C[C@@H]1CN(C(=O)Nc2ccc(OCCCCN3CCC(n4ccc5c(N6CCC(=O)NC6=O)cccc54)CC3)nc2)[C@@H](C)CN1c1ccc(C#N)c(Cl)c1` [EAR121, (2S,5R)-4-(3-chloro-4-cyanophenyl)-N-(6-(4-(4-(4-(2,4-dioxotetrahydropyrimidin-1(2H)-yl)-1H-indol-1-yl)piperidin-1-yl)butoxy)pyridin-3-yl)-2,5-dimethylpiperazine-1-carboxamide], for which the Dmax was no less than 50%. As to `N#Cc1ccc(O[C@H]2CC[C@H](NC(=O)c3cnc(N4CCC(CN5CCC(n6ccc7c(N8CCC(=O)NC8=O)ncnc76)CC5)CC4)nc3)CC2)cc1Cl` [EAR200, N-((1r,4r)-4-(3-Chloro-4-cyanophenoxy)cyclohexyl)-2-(4-((4-(4-(2,4-dioxotetrahydropyrimidin-1(2H)-yl)-7H-pyrrolo[2,3-d]pyrimidin-7-yl)piperidin-1-yl)methyl)piperidin-1-yl)pyrimidine-5-carboxamide hydrochloride], the Dmax was no less than 50%.

Take `CC(C)n1ccc2c(N3CCC(=O)NC3=O)cc(C(=O)N3CCCC34CCN(CCCCCCc3ccc(C(=O)N[C@H]5CC[C@H](Oc6ccc(C#N)c(Cl)c6)CC5)cc3)CC4)cc21` [EAR86, N-((1r,4r)-4-(3-Chloro-4-cyanophenoxy)cyclohexyl)-4-(6-(1-(4-(2,4-dioxotetrahydropyrimidin-1(2H)-yl)-1-isopropyl-1H-indole-6-carbonyl)-1,8-diazaspiro[4.5]decan-8-yl)hexyl)benzamide]: the Dmax is no less than 50%. On to `CC1(C)C(=O)N(c2ccc(C#N)c(C(F)(F)F)c2)C(=S)N1c1ccc(N2CCC(CN3CCC(n4ncc5c(N6CCC(=O)NC6=O)cccc54)CC3)CC2)cc1` [EAR95, 4-(3-(4-(4-((4-(4-(2,4-Dioxotetrahydropyrimidin-1(2H)-yl)-1H-indazol-1-yl)piperidin-1-yl)methyl)piperidin-1-yl)phenyl)-4,4-dimethyl-5-oxo-2-thioxoimidazolidin-1-yl)-2-(trifluoromethyl)benzonitrile], for which the Dmax is no less than 50%. Take `N#Cc1ccc(O[C@H]2CC[C@H](NC(=O)c3ccc(N4CCC[C@H](CN5CCC(n6ncc7c(N8CCC(=O)NC8=O)cccc76)CC5)C4)nn3)CC2)cc1Cl` (single isomer, unassigned) [EAR136]: the Dmax is no less than 50%. `N#Cc1ccc(O[C@H]2CC[C@H](NC(=O)c3ccc(O[C@H]4CCN(C(=O)CN5CCC(n6ccc7c(N8CCC(=O)NC8=O)cccc76)CC5)C4)nn3)CC2)cc1Cl` [EAR188, N-((1r,4S)-4-(3-Chloro-4-cyanophenoxy)cyclohexyl)-6-(((S)-1-(2-(4-(4-(2,4-dioxotetrahydropyrimidin-1(2H)-yl)-1H-indol-1-yl)piperidin-1-yl)acetyl)pyrrolidin-3-yl)oxy)pyridazine-3-carboxamide]: the Dmax was no less than 50%. Take `CC1CC(CN2CCC(n3ncc4c(N5CCC(=O)NC5=O)cccc43)CC2)CN1c1ccc(C(=O)N[C@H]2CC[C@H](Oc3ccc(C#N)c(Cl)c3)CC2)nn1` (some centres unmarked) [EAR232, N-((1r,4r)-4-(3-chloro-4-cyanophenoxy)cyclohexyl)-6-(4-((4-(4-(2,4-dioxotetrahydropyrimidin-1(2H)-yl)-1H-indazol-1-yl)piperidin-1-yl)methyl)-2-methylpyrrolidin-1-yl)pyridazine-3-carboxamide]: the Dmax was no less than 50%.
